Laboratory results from ChEMBL document CHEMBL3745636, “Dibenz[b,f]oxepin and Antimycobacterial Chalcone Constituents of Empetrum nigrum” (J Nat Prod, 2015).
Values after ≈ are worked out from the molar mass of the structure shown.

Tests used:
[1] = tested on: Mycobacterium tuberculosis; assay: Antimycobacterial activity against Mycobacterium tuberculosis H37Ra ATCC 25177 assessed as growth inhibition after 24 to 168 hrs by microplate resazurin assay; assay type: functional, organism-based
HEK293 = assay: Cytotoxicity against human HEK293 cells assessed as cell viability after 24 hrs by cell titer-blue assay; assay type: cell-based; conditions: HEK293, 24 h

| Compound | IC50 [1] | MIC90 [1] | IC50 (HEK293) |
| --- | --- | --- | --- |
| COc1cc(CCc2ccccc2O)cc(O)c1OC | 900 µM | > 1460 µM | 298 µM |
| COc1cc2c(c(O)c1OC)Oc1ccccc1CC2 | 105 µM | 367 µM (≈ 99.9 µg/mL) | 355 µM |
| COc1c(O)cc2c(c1OC)-c1c(O)cccc1CC2 | 113 µM | 734 µM (≈ 200 µg/mL) | 289 µM |
| COc1c(O)cc2c(c1OC)Oc1ccccc1CC2 | 94.4 µM | 367 µM (≈ 99.9 µg/mL) | 167 µM |
| COc1cc(CCc2ccccc2O)cc(OC)c1OC | 179 µM | 694 µM (≈ 200 µg/mL) | 113 µM |
| O=C(CCc1ccccc1)c1ccc(O)cc1O | 32.8 µM | 206 µM (≈ 49.9 µg/mL) | 249 µM |
| O=C(/C=C/c1ccccc1)c1ccc(O)cc1O [2',4'-DIHYDROXYCHALCONE] | 23.8 µM | 104 µM (≈ 25 µg/mL) | 109 µM |
| CC1(C)CC[C@]2(CO)CC[C@]3(C)C(=CC[C@@H]4[C@@]5(C)CC[C@H](O)C(C)(C)[C@@H]5CC[C@]43C)[C@@H]2C1 [ERYTHRODIOL] | 157 µM | > 903 µM | 613 µM |
| CC1(C)CC[C@]2(C(=O)O)CC[C@]3(C)C(=CC[C@@H]4[C@@]5(C)CC[C@H](O)C(C)(C)[C@@H]5CC[C@]43C)[C@@H]2C1 [OLEANOLIC_ACID] | 214 µM | > 876 µM | 329 µM |
